The text below walks through data of patent US20250340574A1, “MODULATORS OF CYSTIC FIBROSIS TRANSMEMBRANE CONDUCTANCE REGULATOR” (Vertex Pharmaceuticals Incorporated, priority 2022, published 2025).

The first assay deals with T1, CFTR (F508del/MF-HBE cells) (Homo sapiens, UniProt P13569, DEL508-508).
T1 construct: human bronchial epithelial (HBE) cells derived from CF subjects heterozygous for F508del and a minimal function CFTR mutation (F508del/MF-HBE); endogenous in cells; host or cells: Primary human bronchial epithelial cells from CF subjects (F508del/MF genotype), differentiated at an air-liquid interface
T1 sequence (P13569 with tags, fused parts or gaps DEL508-508): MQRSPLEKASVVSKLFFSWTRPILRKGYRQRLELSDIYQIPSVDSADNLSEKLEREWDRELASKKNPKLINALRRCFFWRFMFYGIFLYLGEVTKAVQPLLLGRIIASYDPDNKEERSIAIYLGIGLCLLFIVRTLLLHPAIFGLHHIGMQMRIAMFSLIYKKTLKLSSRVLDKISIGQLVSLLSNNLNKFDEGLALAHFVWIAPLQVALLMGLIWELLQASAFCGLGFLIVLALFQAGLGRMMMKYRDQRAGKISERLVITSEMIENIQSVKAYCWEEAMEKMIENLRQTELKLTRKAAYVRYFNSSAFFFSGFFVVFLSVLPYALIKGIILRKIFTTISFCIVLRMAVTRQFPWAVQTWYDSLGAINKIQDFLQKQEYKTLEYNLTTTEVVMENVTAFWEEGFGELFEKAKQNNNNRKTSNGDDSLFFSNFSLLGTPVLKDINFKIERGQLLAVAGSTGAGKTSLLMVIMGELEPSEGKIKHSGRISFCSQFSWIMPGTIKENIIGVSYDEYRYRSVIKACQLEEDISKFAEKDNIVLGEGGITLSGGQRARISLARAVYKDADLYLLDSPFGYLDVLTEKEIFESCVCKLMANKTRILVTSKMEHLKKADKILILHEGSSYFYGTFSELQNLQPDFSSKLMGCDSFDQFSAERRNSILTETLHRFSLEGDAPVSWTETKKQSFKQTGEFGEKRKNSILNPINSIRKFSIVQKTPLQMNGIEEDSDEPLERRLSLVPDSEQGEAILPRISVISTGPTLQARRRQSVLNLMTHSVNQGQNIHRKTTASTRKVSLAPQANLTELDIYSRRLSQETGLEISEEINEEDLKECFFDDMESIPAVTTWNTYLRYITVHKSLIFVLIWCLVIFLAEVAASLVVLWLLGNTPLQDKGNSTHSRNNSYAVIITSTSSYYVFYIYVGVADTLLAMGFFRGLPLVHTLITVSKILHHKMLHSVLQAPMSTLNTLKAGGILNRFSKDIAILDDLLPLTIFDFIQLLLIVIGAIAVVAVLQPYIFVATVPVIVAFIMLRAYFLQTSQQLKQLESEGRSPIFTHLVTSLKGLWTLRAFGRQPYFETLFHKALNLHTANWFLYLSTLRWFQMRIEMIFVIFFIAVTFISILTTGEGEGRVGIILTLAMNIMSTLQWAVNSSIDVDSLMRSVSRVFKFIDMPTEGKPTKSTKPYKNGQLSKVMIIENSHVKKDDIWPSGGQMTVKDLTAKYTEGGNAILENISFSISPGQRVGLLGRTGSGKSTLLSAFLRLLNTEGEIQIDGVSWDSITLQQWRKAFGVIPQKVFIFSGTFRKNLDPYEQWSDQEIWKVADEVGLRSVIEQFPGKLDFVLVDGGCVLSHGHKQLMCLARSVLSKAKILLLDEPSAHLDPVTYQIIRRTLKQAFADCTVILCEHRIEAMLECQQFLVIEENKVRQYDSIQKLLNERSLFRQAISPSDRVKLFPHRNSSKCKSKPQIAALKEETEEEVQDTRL
Put plainly: Ussing chamber assay of CFTR-mediated short-circuit currents, Assay D (single concentration of 1 μM). Type of assay: cell-based. The conditions noted are these: with 44 nM potentiator and 18 μM Tezacaftor, 18-24 hours, 20% human serum. How it is done: Ussing chamber experiments were performed using human bronchial epithelial (HBE) cells derived from CF subjects heterozygous for F508del and a minimal function CFTR mutation (F508del/MF-HBE) and cultured as previously described (Neuberger T, Burton B, Clark H, Van Goor F Methods Mol Biol 2011:741:39-54). After four days the apical media was removed, and the cells were grown at an air liquid interface for >14 days prior to use.
To isolate the CFTR-mediated short-circuit (ISC) current, F508del/MF-HBE grown on Costar® Snapwell™ cell culture inserts were mounted in an Ussing chamber and the transepithelial ISC was measured under voltage-clamp recording conditions (Vhold=0 mV) at 37° C. The basolateral solution contained (in mM) 145 NaCl, 0.83 K2HPO4, 3.3 KH2PO4, 1.2 MgCl2, 1.2 CaCl2, 10 Glucose, 10 HEPES (pH adjusted to 7.4 with NaOH) and the apical solution contained (in mM) 145 NaGluconate, 1.2 MgCl2, 1.2 CaCl2, 10 glucose, 10 HEPES (pH adjusted to 7.4 with NaOH) and 30 μM amiloride to block the epithelial sodium channel. Forskolin (20 μM) was added to the apical surface to activate CFTR, followed by apical addition of a CFTR inhibitor cocktail consisting of BPO, GlyH-101, and CFTR inhibitor 172 (each at 20 μM final assay concentration) to specifically isolate CFTR currents. The CFTR-mediated ISC (μA/cm^2) for each condition was determined from the peak forskolin response to the steady-state current following inhibition.
The activity of the CFTR corrector compounds on the CFTR-mediated ISC was determined in Ussing chamber studies as described above. The F508del/MF-HBE cell cultures were either incubated with the corrector compounds at a range of concentrations in combination with 33 nM (6R,12R)-17-amino-12-methyl-6,15-bis(trifluoromethyl)-13,19-dioxa-3,4,18-triazatricyclo[12.3.1.12,5]nonadeca-1(18),2,4,14,16-pentaen-6-ol and 18 μM Tezacaftor or were incubated with the corrector compounds at a single fixed concentration of 1 μM in combination with 44 nM (6R,12R)-17-amino-12-methyl-6,15-bis(trifluoromethyl)-13,19-dioxa-3,4,18-triazatricyclo[12.3.1.12,5]nonadeca-1(18),2,4,14,16-pentaen-6-ol and 18 μM Tezacaftor for 18-24 hours at 37° C. and in the presence of 20% human serum. The concentration of corrector compounds with 44 nM or 33 nM (6R,12R)-17-amino-12-methyl-6,15-bis(trifluoromethyl)-13,19-dioxa-3,4,18-triazatricyclo[12.3.1.12,5]nonadeca-1(18),2,4,14,16-pentaen-6-ol and 18 μM Tezacaftor during the 18-24 hours incubations was kept constant throughout the Ussing chamber measurement of the CFTR-mediated ISC to ensure compounds were present throughout the entire experiment. The efficacy and potency of the putative F508del correctors was compared to that of the known Vertex corrector, (14S)-8-[3-(2-{Dispiro[2.0.2.1]heptan-7-yl}ethoxy)-1H-pyrazol-1-yl]-12,12-dimethyl-2λ^6-thia-3,9,11,18,23-pentaazatetracyclo[17.3.1.111,14.05,10]tetracosa-1(22),5,7,9,19(23),20-hexaene-2,2,4-trione, in combination with 18 μM Tezacaftor and 1 μM Ivacaftor.
• Assay A: 0.1 μM to 25 μM, 6 concentrations • Assay B: 0.00001 μM to 25 μM, 12 concentrations • Assay C: 0.026 μM to 25 μM, 6 concentrations • Assay D: Activity at single concentration of 1 μM
As to `Cc1cccc(C)c1-c1nc2nc(c1C)OC[C@@H](COC(C)C)N(Cc1cnc3oc(C4CC4)cc3n1)C(=O)c1cccc(c1)S(=O)(=O)N2` [Compound I-181], the “D activity at 1 μM (%)” value is “+++ (+++ is >60%)”. The same measure, in the same setting: the entry for `Cc1cccc(C)c1-c1nc2nc(c1C)OC[C@@H](CC1(C)CC1)N(Cc1cnc3oc(C4(C)CC4)cc3n1)C(=O)c1cccc(c1)S(=O)(=O)N2` [Compound I-232] is “+++ (+++ is >60%)”; for `Cc1cccc(C)c1-c1cc2nc(n1)NS(=O)(=O)c1cccc(c1)C(=O)N(Cc1cnc3oc(C(C)C)cc3n1)[C@H](CC1(C)CCC1)CO2` [Compound I-55] it is “+++ (+++ is >60%)”. The same measure, in the same setting: under `Cc1cccc(C)c1-c1cc2nc(n1)NS(=O)(=O)c1cccc(c1)C(=O)N(Cc1cnc3cc(C(C)C)n(C)c3n1)[C@H](COC1CCCC1)CO2` [Compound I-121, (11R)-11-(Cyclopentoxymethyl)-6-(2,6-dimethylphenyl)-12-[(6-isopropyl-5-methyl-pyrrolo[2,3-b]pyrazin-3-yl)methyl]-2,2-dioxo-9-oxa-2λ^6-thia-3,5,12,19-tetrazatricyclo[12.3.1.14,8]nonadeca-1(18),4(19),5,7,14,16-hexaen-13-one] stands “+++ (+++ is >60%)”; under `Cc1cccc(C)c1-c1cc2nc(n1)NS(=O)(=O)c1cccc(c1)C(=O)N(Cc1ncc3oc(C(C)(C)C)cc3n1)[C@H](CC(C)(C)C)CO2` [Compound I-250], “+++ (+++ is >60%)”; under `Cc1cccc(C)c1-c1cc2nc(n1)NS(=O)(=O)c1cccc(c1)C(=O)N(Cc1cnc3nn(C(C)C)cc3n1)[C@H](CC(C)(C)C)CO2` [Compound I-169, (11R)-6-(2,6-Dimethylphenyl)-11-(2,2-dimethylpropyl)-12-[(2-isopropylpyrazolo[3,4-b]pyrazin-5-yl)methyl]-2,2-dioxo-9-oxa-2λ^6-thia-3,5,12,19-tetrazatricyclo[12.3.1.14,8]nonadeca-1(18),4(19),5,7,14,16-hexaen-13-one], “+++ (+++ is >60%)”. As to `Cc1cccc(C)c1-c1cc2nc(n1)NS(=O)(=O)c1cccc(c1)C(=O)N(Cc1cnc3oc(C4(C)CCC4)cc3n1)[C@H](COC(C)C)CO2` [Compound I-144], the “D activity at 1 μM (%)” value is “+++ (+++ is >60%)”. Same read-out and setting: under `Cc1cccc(C)c1-c1nc2nc(c1C)OC[C@@H](CCC(C)(C)C)N(Cc1cnc3cc(C4CC4)n(C)c3n1)C(=O)c1cccc(c1)S(=O)(=O)N2` [Compound I-183] stands “+++ (+++ is >60%)”; under `Cc1cccc(CC(C)C)c1-c1nc2nc(c1C)OC[C@@H](CC(C)(C)C)N(Cc1cnc3oc(C(C)(C)C)cc3n1)C(=O)c1cccc(c1)S(=O)(=O)N2` (atropisomer, axis not shown) [Compound I-238], “+++ (+++ is >60%)”. Still for that read-out and setting: under `Cc1cccc(C)c1-c1cc2nc(n1)NS(=O)(=O)c1cccc(c1)C(=O)N(Cc1cnc3oc(C(C)C)cc3n1)[C@H](CC(C)(C)C)CC2` [Compound I-173] stands “+++ (+++ is >60%)”; under `Cc1cccc(C)c1-c1cc2nc(n1)NS(=O)(=O)c1cccc(c1)C(=O)N(Cc1ncc3oc(C4CC4)cc3n1)[C@H](COC(C)C)CO2` [Compound I-200], “+++ (+++ is >60%)”.

Take `Cc1cccc(C)c1-c1nc2nc(c1C)OC[C@@H](C[C@H]1CCCCO1)N(Cc1cnc3oc(C4CC4)cc3n1)C(=O)c1cccc(c1)S(=O)(=O)N2` [Compound I-192]: the “D activity at 1 μM (%)” value is “+++ (+++ is >60%)”.

The assay is the same for the next values; noted with them: with 44 nM potentiator and 18 μM Tezacaftor, 20% human serum.
As for `CCc1c2nc(nc1-c1c(C)cccc1C)NS(=O)(=O)c1cccc(c1)C(=O)N(Cc1cnc3oc(C(C)(C)C)cc3n1)[C@H](COC(C)C)CO2` [IV-3], the “D act. at 1 μM (%)” value is listed as “+++ (+++ is >60%)”. Turning to `Cc1cccc(C)c1-c1cc2nc(n1)NS(=O)(=O)c1cccc(c1)C(=O)N(Cc1cnc3oc(C(C)(C)C)cc3n1)[C@H](CC1CCCC1)CO2` [IV-8], the “D act. at 1 μM (%)” value is given as “+++ (+++ is >60%)”. Same read-out and setting: the entry for `Cc1cccc(C)c1-c1cc2nc(n1)NS(=O)(=O)c1cccc(c1)C(=O)N(Cc1cnc3oc([C@](C)(O)CO)cc3n1)[C@H](CC1(C)CC1)CO2` (single isomer, unassigned) [IV-14] is “+++ (+++ is >60%)”.
